Measured values taken from patent US10556854B2, “Bacterial efflux pump inhibitors” (RUTGERS, THE STATE UNIVERSITY OF NEW JERSEY, priority 2016, dated 2020).
Counter-ions that a name gives are not always drawn.

Tests used:
E. coli = test: MIC-based assay for potentiation of antibiotics that are known efflux pump substrates (Test A), E. coli; format: cell-based; conditions: fold lowering of MIC of antibiotic (e.g., clarithromycin and levofloxacin) with EPI compound at 1.6 to 12.5 μg/mL; Escherichia coli ATCC 25922
Text: (§1) The ability of a compound disclosed herein to inhibit a bacterial efflux pump can be determined using a method like Test A or Test B as described in Example 13 and as shown in Table 1.
(§2) Test A. Minimum Inhibitory Concentration (MIC)-Based Assay for Potentiation of Antibiotics that are Known Efflux Pump Substrates:
(§3) MIC-based assays were used to evaluate the impact of potential efflux pump inhibiting (EPI) compounds on the MICs of antibiotics (e.g., clarithromycin and levofloxacin) known to be substrates for Gram-negative bacterial efflux pumps. The assays were conducted in accordance with Clinical and Laboratory Standards Institute (CLSI) guidelines for broth microdilution, with the modification that assays were conducted in the presence and absence of the test EPI compounds. When present, the EPI compounds were added to cation-adjusted Mueller-Hinton (CAMH) broth (Becton, Dickinson and Co., Franklin Lakes, N.J.) at a final concentration in the range of 1.6 to 12.5 μg/mL.
(§4) Log-phase Gram-negative bacteria were added to 96-well microtiter plates (at 5×10^5 colony forming units (CFU) per mL) containing two-fold serial dilutions of antibiotic in CAMH broth either in the absence or presence of the test EPI compounds. In all assays, each serial dilution of antibiotic was present in duplicate. The final volume in each well was 0.1 mL, and the microtiter plates were incubated aerobically for 24 hours at 37° C. Bacterial growth was then monitored by measuring the optical density (OD) at 600 nm using a VersaMax® plate reader (Molecular Devices, Inc., Sunnyvale, Calif.), with the MIC being defined as the lowest compound concentration at which growth was ≥90% inhibited compared to antibiotic-free control. The following Gram-negative bacterial strains were included in these assays: • Escherichia coli ATCC 25922 • Klebsiella pneumoniae ATCC 13883 and ATCC 10031 • Pseudomonas aeruginosa ATCC 27853. Test B. Fluorescence-Based Cellular Assay for Efflux Inhibition: […]

P. aeruginosa = test: MIC-based assay for potentiation of antibiotics that are known efflux pump substrates (Test A), P. aeruginosa; format: cell-based; conditions: fold lowering of MIC of antibiotic (e.g., clarithromycin and levofloxacin) with EPI compound at 1.6 to 12.5 μg/mL; Pseudomonas aeruginosa ATCC 27853
Text: as §1, §2, §3, §4

Row | SMILES | Active in E. coli (E. coli) [x] | Active in P. aeruginosa (P. aeruginosa) [x]
1 | NCC(N)COC(CCc1ccccc1)CCc1ccccc1 (stereo not shown) [Example 11, 3-((1,5-diphenylpentan-3-yl)oxy)propane-1,2-diamine] | <2 | <2
2 | NCC[C@H](N)CCNC(CCc1ccccc1)CCc1ccccc1 [Example 5, (S)—N^1-(1,5-Diphenylpentan-3-yl)pentane-1,3,5-triamine 3 TFA] | ≥32 | ≥16
3 | NCCC[C@H](N)CNC(CCc1ccccc1)CCc1ccccc1 [Example 1, (S)—N^1-(1,5-Diphenylpentan-3-yl)pentane-1,2,5-triamine 3 TFA] | ≥8 | <2
4 | NCC(N)COCC(CCc1ccccc1)CCc1ccccc1 (stereo not shown) [Example 12, 3-(2-phenethyl-4-phenylbutoxy)propane-1,2-diamine] | 8 | <2
5 | NC[C@@H](N)CCCNCC(CCc1ccccc1)CCc1ccccc1 [Example 8, (S)—N^5-(2-phenethyl-4-phenylbutyl)pentane-1,2,5-triaminium 2,2,2-trifluoroacetate] | ≥32 | ≥32
6 | NCCC[C@H](N)CNCC(CCc1ccccc1)CCc1ccccc1 [Example 7, (S)—N^1-(2-phenethyl-4-phenylbutyl)pentane-1,2,5-triamine 3TFA] | ≥32 | ≥32
7 | NCC[C@H](N)CNC(CCc1ccccc1)CCc1ccccc1 [Example 3, (S)—N^1-(1,5-diphenylpentan-3-yl)butane-1,2,4-triamine 3TFA] | ≥4 | ≥2
8 | NC[C@@H](N)CCNC(CCc1ccccc1)CCc1ccccc1 [Example 4, (S)—N^4-(1,5-diphenylpentan-3-yl)butane-1,2,4-triamine 3 TFA] | ≥2 | ≥2
9 | NC[C@@H](N)CCCNC(CCc1ccccc1)CCc1ccccc1 [Example 2, (S)—N^5-(1,5-diphenylpentan-3-yl)pentane-1,2,5-triamine 3 TFA] | ≥16 | ≥4
10 | CC(C)C(N)CC[C@H](N)CNC(CCc1ccccc1)CCc1ccccc1.Cl.Cl.Cl (stereo partly drawn) [Example 10, (2S)—N^1-(1,5-diphenylpentan-3-yl)-6-methylheptane-1,2,5-triaminium chloride] | ≥256 | <2
11 | CC(C)C(N)CC[C@H](N)CNCC(CCc1ccccc1)CCc1ccccc1 (stereo partly shown) [Example 9] | ≥128 | <2
